Test results from patent US8377895B2, “Cyclin-dependent protein kinases inhibitors of Scutellaria flavonoid organic amine derivatives, synthesis and use thereof” (priority 2008, dated 2013).
In brackets after ≈: the same amount, converted by molar mass. Read-outs that look alike come from different tables or passages of the source.

Legend:
Prostate (PC-3) = experiment: Anticancer activity in vitro (Table 3), PC-3; assay type: cell-based, human; conditions: 48 h; for GI50 / IC50 / LC50: Homo sapiens
Cdk1/Cyclin B = Cdk1/Cyclin B (Homo sapiens, UniProt P06493); experiment: Cdk1/Cyclin B inhibitory activity, Z'-LYTE Kinase Assay; assay type: biochemical; conditions: for IC50: ATP 10 μM, 8 concentrations of 0.01-25 μM
Chain of Cdk1/Cyclin B (P06493 whole entry): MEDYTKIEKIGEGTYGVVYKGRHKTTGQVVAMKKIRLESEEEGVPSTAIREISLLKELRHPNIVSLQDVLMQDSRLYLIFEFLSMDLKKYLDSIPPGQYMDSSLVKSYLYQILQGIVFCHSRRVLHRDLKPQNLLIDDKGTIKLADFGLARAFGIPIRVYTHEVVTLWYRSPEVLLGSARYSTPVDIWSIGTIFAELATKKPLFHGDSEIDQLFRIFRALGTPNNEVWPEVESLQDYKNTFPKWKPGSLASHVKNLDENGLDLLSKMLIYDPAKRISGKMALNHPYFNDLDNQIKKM
Chain of Cdk1/Cyclin B (P14635 whole entry partner): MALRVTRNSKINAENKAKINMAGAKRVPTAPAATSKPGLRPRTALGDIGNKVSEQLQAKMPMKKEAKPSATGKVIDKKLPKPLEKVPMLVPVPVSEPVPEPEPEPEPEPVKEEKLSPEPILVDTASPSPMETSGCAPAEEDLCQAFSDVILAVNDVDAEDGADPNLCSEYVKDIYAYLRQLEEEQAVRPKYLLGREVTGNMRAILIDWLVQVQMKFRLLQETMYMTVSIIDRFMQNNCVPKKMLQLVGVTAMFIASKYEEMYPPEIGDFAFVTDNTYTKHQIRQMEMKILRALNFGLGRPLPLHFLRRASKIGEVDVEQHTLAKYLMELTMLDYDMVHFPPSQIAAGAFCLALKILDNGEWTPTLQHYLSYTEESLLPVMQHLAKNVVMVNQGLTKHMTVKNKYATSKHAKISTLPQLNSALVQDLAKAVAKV

gastric (BGC-823) = experiment: Anticancer activity in vitro (Table 3), BGC-823; assay type: cell-based, human; conditions: for GI50 / IC50 / CC50: Homo sapiens, BGC-823, 48 h; for BGC-823 TGI: 48 h; for CC50: read-out: BGC-823 LC50
MCF-7 = experiment: cells; conditions: Homo sapiens; for CC50: MCF7, read-out: MCF-7 LC50; for GI50: MCF7, read-out: MCT-7 GI50
[1] = Druggability screening: blood drug concentration and half-life; conditions: equilibrium phase
Breast (MCF-7) = experiment: Anticancer activity in vitro (Table 3), MCF-7; assay type: cell-based, human; conditions: for MCF-7 TGI: 48 h; for GI50 / IC50 / CC50: Homo sapiens, MCF7, 48 h; for CC50: read-out: MCF-7 LC50
[2] = Druggability screening: protein binding rate; assay type: in vitro ADME
[3] = system: 58 kinds human tumor cell; experiment: NCI growth inhibition of 58 kinds human tumor cell; assay type: cell-based; conditions: 48 h, by NCI, read-out: growth inhibition rates in vitro 58 kinds human tumor cell
[4] = Druggability screening: solubility in PBS (pH7.4); assay type: physicochemical; conditions: pH 7.4, aqueous buffer
[5] = in vivo
CD4+T lymphocytes = experiment: Differentiate growth inhibition of CD4+T lymphocytes; assay type: cell-based; conditions: 48 h, induced by growth factor IL-3 and IL-5, read-out: differentiate growth inhibition rates of CD4+T lymphocytes
Description: These show a good prospect against AIDS, and are going to be prepared anti-AIDS drugs.

[6] = system: human cervical carcinoma HeLa cell line; experiment: MTT cancer cell growth inhibition, HeLa; assay type: cell-based
[7] = system: human gastric cancer BGC823 cell lines; experiment: MTT cancer cell growth inhibition, BGC823; assay type: cell-based
[8] = system: human cervical carcinoma HeLa cell line; experiment: Annexin V-PI double staining flow cytometry apoptosis, HeLa; assay type: cell-based; conditions: concentration equals to IC50, 48 hours
[9] = system: human gastric cancer BGC823 cell lines; experiment: Annexin V-PI double staining flow cytometry apoptosis, BGC823; assay type: cell-based; conditions: BGC823, concentration equals to IC50, 48 hours
[10] = Distribution and plasma binding in rabbits (LC-DAD-MS); assay type: in vivo
Description: The major metabolic process relates to the structures is illustrated in the following scheme.

[11] = system: human breast cancer MCF-7; experiment: MTT cancer cell growth inhibition, MCF-7; assay type: cell-based
[12] = system: human breast cancer MCF-7; experiment: Annexin V-PI double staining flow cytometry apoptosis, MCF-7; assay type: cell-based; conditions: MCF-7, concentration equals to IC50, 48 hours

COc1c(O)c(CN2CCN(C)CC2)c2oc(-c3ccccc3)cc(=O)c2c1O [6-OCH3— Methylpiperazine Baicalein]
PC-3 TGI (Prostate (PC-3)): 76.1 µM
GI50 (Prostate (PC-3)): 11.2 µM
IC50 (Prostate (PC-3)): 87.6 µM
IC50 (Cdk1/Cyclin B): 0.88 µM
GI50 (gastric (BGC-823)): 26.2 µM
IC50 (gastric (BGC-823)): 115 µM
CC50 (MCF-7): > 100 µM
GI50 (MCF-7): 26.1 µM

O=c1cc(-c2ccccc2)oc2cc(O)c(O)c(O)c12 [Baicalein, reference compound]
IC50 (Cdk1/Cyclin B): 2.08 µM
Blood drug concentration [1]: 0.026 µM
half-life (in vivo): 5.26 h

O=C(O)[C@H]1O[C@@H](Oc2cc3oc(-c4ccccc4)cc(=O)c3c(O)c2O)[C@H](O)[C@@H](O)[C@@H]1O [Baicalin, reference compound]
inhibition against Cdk1/Cyclin B (in words) (Cdk1/Cyclin B): slight inhibition
IC50 (Cdk1/Cyclin B): 18.1 µM

COc1c(O)c(CN(CCO)CCO)c(O)c2c(=O)cc(-c3ccccc3)oc12 [Diethanolamin Wogonin, 6-((bis(2-hydroxyethyl)amino)methyl)-5,7-dihydroxy-8-methoxy-2-phenyl-4H-chromen-4-one]
IC50 (Cdk1/Cyclin B): 0.31 µM

CN(C)Cc1c(O)c(O)c(O)c2c(=O)cc(-c3ccccc3)oc12 [Dimethylamine Baicalein]
GI50 (MCF-7): 12.3 µM

COc1c(O)c(CN(C)C)c(O)c2c(=O)cc(-c3ccccc3)oc12 [Dimethylamine Wogonin, 6-((dimethylamino)methyl)-5,7-dihydroxy-8-methoxy-2-phenyl-4H-chromen-4-one]
IC50 (Cdk1/Cyclin B): 7.63 µM

CN1CCC(c2c(O)cc(O)c3c(=O)cc(-c4ccccc4Cl)oc23)C1CO (centres unmarked) [Example P276-00, reference compound]
IC50 (Cdk1/Cyclin B): 0.79 µM

CN1CC[C@H](c2c(O)cc(O)c3c(=O)cc(-c4ccccc4Cl)oc23)[C@H](O)C1 [Flavopiridol, reference compound]
GI50 (MCF-7): 0.048 µM

O=c1cc(-c2ccccc2)oc2c(CN3CCN(CCO)CC3)c(O)c(O)c(O)c12 [Hydroxyethylpiperazine Baicalein, 5,6,7-trihydroxy-8-((4-(2-hydroxyethyl)piperazin-1-yl)methyl)-2-phenyl-4H-chromen-4-one]
PC-3 TGI (Prostate (PC-3)): 15.4 µM
GI50 (Prostate (PC-3)): 6.2 µM
IC50 (Prostate (PC-3)): 11.6 µM
LC50 (Prostate (PC-3)): 36.6 µM
MCF-7 TGI (Breast (MCF-7)): 15.4 µM
GI50 (Breast (MCF-7)): 6 µM
IC50 (Breast (MCF-7)): 20.4 µM
CC50 (Breast (MCF-7)): 32.6 µM
IC50 (Cdk1/Cyclin B): 0.28 µM
BGC-823 TGI (gastric (BGC-823)): 15.4 µM
GI50 (gastric (BGC-823)): 6.1 µM
IC50 (gastric (BGC-823)): 19.3 µM
CC50 (gastric (BGC-823)): 51 µM
CC50 (MCF-7): 42.1 µM
GI50 (MCF-7): 13.1 µM
fraction unbound [2]: 0.04
half-life (in vivo): 3.75 h
inhibition at 10 µM [3]: 46.2%
solubility [4]: 607 µM (≈ 250 µg/mL)
Blood drug concentration [5]: 31.6 µM

COc1c(O)c(CN2CCN(CCO)CC2)c(O)c2c(=O)cc(-c3ccccc3)oc12 [Hydroxyethylpiperazine Wogonin, 6-((4-(2-hydroxyethyl)piperazin-1-yl)methyl)-5,7-dihydroxy-8-methoxy-2-phenyl-4H-chromen-4-one]
IC50 (Cdk1/Cyclin B): 0.32 µM
CC50 (MCF-7): 43.1 µM
GI50 (MCF-7): 11.1 µM
inhibition at 10 µM (CD4+T lymphocytes): 55%
half-life (in vivo): 4 h
solubility [4]: 9390 µM (≈ 4000 µg/mL)
Blood drug concentration [5]: 94.0 µM

O=c1cc(-c2ccccc2)oc2c(CN3CCC(O)C3)c(O)c(O)c(O)c12 (centres unmarked) [Hydroxylpyrrolidine Baicalein, 5,6,7-trihydroxy-8-((3-hydroxypyrrolidin-1-yl)methyl)-2-phenyl-4H-chromen-4-one]
IC50 (Cdk1/Cyclin B): 0.29 µM

O=c1cc(-c2ccccc2)oc2c(CN3CCC(O)CC3)c(O)c(O)c(O)c12 [Hydroxypiperidin Baicalein, 5,6,7-trihydroxy-8-((4-hydroxypiperidin-1-yl)methyl)-2-phenyl-4H-chromen-4-one]
PC-3 TGI (Prostate (PC-3)): 16.4 µM
GI50 (Prostate (PC-3)): 6 µM
IC50 (Prostate (PC-3)): 18.1 µM
LC50 (Prostate (PC-3)): 41 µM
MCF-7 TGI (Breast (MCF-7)): 16.4 µM
GI50 (Breast (MCF-7)): 6 µM
IC50 (Breast (MCF-7)): 20.1 µM
CC50 (Breast (MCF-7)): 31 µM
IC50 (Cdk1/Cyclin B): 0.3 µM
BGC-823 TGI (gastric (BGC-823)): 16.4 µM
GI50 (gastric (BGC-823)): 5.7 µM
IC50 (gastric (BGC-823)): 18.6 µM
CC50 (gastric (BGC-823)): 53.1 µM
CC50 (MCF-7): 40.1 µM
GI50 (MCF-7): 10.2 µM
inhibition at 10 µM (CD4+T lymphocytes): 46.2%
fraction unbound [2]: 0.09
half-life (in vivo): 4.23 h
inhibition at 10 µM [3]: 40.6%
solubility [4]: 377 µM (≈ 145 µg/mL)
Blood drug concentration [5]: 28.7 µM

COc1c(O)c(CN2CCC(O)CC2)c(O)c2c(=O)cc(-c3ccccc3)oc12 [Hydroxypiperidine Wogonin, 5,7-dihydroxy-6-((4-hydroxypiperidin-1-yl)methyl)-8-methoxy-2-phenyl-4H-chromen-4-one]
IC50 (Cdk1/Cyclin B): 6.91 µM

CN1CCN(Cc2c(O)c(O)c(O)c3c(=O)cc(-c4ccccc4)oc23)CC1 [Methylpiperazine Baicalein, 5,6,7-trihydroxy-8-((4-methylpiperazin-1-yl)methyl)-2-phenyl-4H-chromen-4-one]
IC50 ([6]; 24 h): 12.8 ± 0.2 µM
IC50 ([6]; 48 h): 8.2 ± 0.15 µM
IC50 ([6]; 72 h): 6.7 ± 0.24 µM
PC-3 TGI (Prostate (PC-3)): 19.8 µM
GI50 (Prostate (PC-3)): 8.2 µM
IC50 (Prostate (PC-3)): 21.1 µM
LC50 (Prostate (PC-3)): 38.8 µM
MCF-7 TGI (Breast (MCF-7)): 16.4 µM
GI50 (Breast (MCF-7)): 6.4 µM
IC50 (Breast (MCF-7)): 19.3 µM
CC50 (Breast (MCF-7)): 31.3 µM
IC50 (Cdk1/Cyclin B): 0.29 µM
IC50 ([7]; BGC-823, 24 h): 9.6 ± 0.21 µM
IC50 ([7]; BGC-823, 48 h): 7.2 ± 0.23 µM
IC50 ([7]; BGC-823, 72 h): 6.5 ± 0.19 µM
BGC-823 TGI (gastric (BGC-823)): 19.8 µM
GI50 (gastric (BGC-823)): 6.4 µM
IC50 (gastric (BGC-823)): 23.1 µM
CC50 (gastric (BGC-823)): 62.7 µM
CC50 (MCF-7): 37.2 µM
GI50 (MCF-7): 10.9 µM
fraction unbound [2]: 0.02
early apoptosis [8]: 67.3%
late apoptosis and cellular necrosis [8]: 27.1%
inhibition at 10 µM [3]: 50%
early apoptosis [9]: 69.2%
late apoptosis and cellular necrosis [9]: 22.2%
tissue distribution ([10]; LC-DAD-MS): rapidly distributed to various tissues
fraction unbound ([10]; rabbit, plasma, dose-independent manner, read-out: bound to plasma (converted)): 0.02
IC50 ([11]; MCF7, 24 h): 13.7 ± 0.21 µM
IC50 ([11]; MCF7, 48 h): 10.6 ± 0.17 µM
IC50 ([11]; MCF7, 72 h): 7.4 ± 0.25 µM
solubility [4]: 6.02 µM (≈ 2.3 µg/mL)
early apoptosis [12]: 72.3%
late apoptosis and cellular necrosis [12]: 23.1%

COc1c(O)c(CN2CCN(C)CC2)c(O)c2c(=O)cc(-c3ccccc3)oc12 [Methylpiperazine Wogonin, 6-((4-methylpiperazin-1-yl)methyl)-5,7-dihydroxy-8-methoxy-2-phenyl-4H-chromen-4-one]
IC50 (Cdk1/Cyclin B): > 25 µM

O=c1cc(-c2ccccc2)oc2c(CN3CCOCC3)c(O)c(O)c(O)c12 [Morpholine Baicalein]
IC50 (Cdk1/Cyclin B): 0.3 µM
CC50 (MCF-7): 48.9 µM
GI50 (MCF-7): 10.1 µM

COc1c(O)c(CN2CCOCC2)c(O)c2c(=O)cc(-c3ccccc3)oc12 [Morpholine Wogonin, 5,7-dihydroxy-8-methoxy-6-(morpholinomethyl)-2-phenyl-4H-chromen-4-one]
IC50 (Cdk1/Cyclin B): > 25 µM

O=c1cc(-c2ccccc2)oc2c(CN3CCNCC3)c(O)c(O)c(O)c12 [Piperazine Baicalein]
IC50 (Cdk1/Cyclin B): 0.28 µM
CC50 (MCF-7): 53.1 µM
GI50 (MCF-7): 13.8 µM
solubility [4]: 166 µM (≈ 61.2 µg/mL)

COc1c(O)c(CN2CCNCC2)c(O)c2c(=O)cc(-c3ccccc3)oc12 [Piperazine Wogonin, 5,7-dihydroxy-8-methoxy-2-phenyl-6-(piperazin-1-ylmethyl)-4H-chromen-4-one]
IC50 (Cdk1/Cyclin B): 6.62 µM

O=c1cc(-c2ccccc2)oc2c(CN3CCCCC3)c(O)c(O)c(O)c12 [Piperidine Baicalein]
CC50 (MCF-7): 37.2 µM
GI50 (MCF-7): 10.5 µM

COc1c(O)c(CN2CCCCC2)c(O)c2c(=O)cc(-c3ccccc3)oc12 [Piperidine Wogonin, 5,7-dihydroxy-8-methoxy-2-phenyl-6-(piperidin-1-ylmethyl)-4H-chromen-4-one]
IC50 (Cdk1/Cyclin B): 10.5 µM

O=c1cc(-c2ccccc2)oc2c(CN3CCCC3)c(O)c(O)c(O)c12 [Pyrrolidine Baicalein]
GI50 (MCF-7): 10.3 µM

COc1c(O)c(CN2CCCC2)c(O)c2c(=O)cc(-c3ccccc3)oc12 [Pyrrolidine Wogonin, 5,7-dihydroxy-8-methoxy-2-phenyl-6-(pyrrolidin-1-ylmethyl)-4H-chromen-4-one]
IC50 (Cdk1/Cyclin B): 17.2 µM

O=c1cc(-c2ccccc2)oc2c(CN3CCSCC3)c(O)c(O)c(O)c12 [Sulfurmorpholine Baicalein]
CC50 (MCF-7): 84.3 µM
GI50 (MCF-7): 14.2 µM

COc1c(O)c(CN2CCSCC2)c(O)c2c(=O)cc(-c3ccccc3)oc12 [Sulfurmorpholine Wogonin, 5,7-dihydroxy-8-methoxy-2-phenyl-6-(thiomorpholinomethyl)-4H-chromen-4-one]
IC50 (Cdk1/Cyclin B): 3.17 µM

COc1c(O)cc(O)c2c(=O)cc(-c3ccccc3)oc12 [Wogonin, reference compound]
IC50 (Cdk1/Cyclin B): 3.5 µM
